# Measurements reported in patent publication US20090291964A1, “Potentiators of Antibacterial Activity” (priority 2003, published 2009).
# Read-outs that look alike come from different tables or passages of the source.
# Key:
# Type in all cases: cell-based
# S. aureus ATCC 29213 [1] = test: MIC by NCCLS microdilution, antibacterial agents with and without EPI; conditions: for MIC: Staphylococcus aureus; for MIC in the presence of 4X MEC of EPI, VX-710: VX-710 100 μg/ml; for MIC in the presence of 4X MEC of EPI, VX-853: VX-853 6.25 μg/ml; for MIC in the presence of 4X MEC of EPI, reserpine: reserpine 25 μg/ml; for MIC of EPI: EPI alone; for Fold-reduction in EtBr MIC / MIC of EtBr with EPI: EPIs used at the MEC, except VX-710 at 100 μg/ml
# Method: 3% sterile laked horse blood (Quad Five, Ryegate, Mont.) was added to assays for E. faecalis and S. Pneumoniae. A final concentration of 1% DMSO was present in all assays. […]
# A-106 and C-9 were tested at their respective MECs in combination with a variety of different classes of antibiotics against S. aureus ATCC 29213 (Table 2).
# E. faecalis ATCC 29212 = test: MIC by NCCLS microdilution, EtBr/EPI with and without EPI; conditions: Enterococcus faecalis, ATCC29212, read-out: MIC of EtBr without EPI
# Method: (§1) 3% sterile laked horse blood (Quad Five, Ryegate, Mont.) was added to assays for E. faecalis and S. Pneumoniae. A final concentration of 1% DMSO was present in all assays.
# (§2) EtBr is a general substrate for many different efflux pumps in bacteria. Markham et al., “Multiple Novel Inhibitors of the NorA Multidrug Transporter of Staphylococcus aureus”, Antimicrob. Agents Chemother. 43:2404-2408 (1999). Since EtBr is a non-specific DNA intercalator, the only known mechanism of resistance to EtBr is via efflux. Markham et al., “Multiple Novel Inhibitors of the NorA Multidrug Transporter of Staphylococcus aureus”, Antimicrob. Agents Chemother. 43:2404-2408 (1999).
# S. pneumoniae ATCC 10015 = test: as above; conditions: Streptococcus pneumoniae, ATCC10015, read-out: MIC of EtBr without EPI
# Method: as §1, §2
# [2] = tested on: S. aureus SA-1199B (NorA overproducing); test: MIC of fluoroquinolones with and without EPI; conditions: Staphylococcus aureus
# From the text: (§3) A variety of strains may be used in these experiments, including, but not limited to, S. aureus ATCC 29213, E. faecalis ATCC 29212, and S. pneumoniae, S. aureus strains SA-1199, SA-1199B, SA-8325-4, and SA-K2068. S. aureus ATCC 29213, E. faecalis ATCC 29212, and S. pneumoniae ATCC 10015 were obtained from the American Type Culture Collection (Manassas, Va.). S. aureus strains SA-1199 (clinical isolate, susceptible), SA-1199B (SA-1199, NorA overproducing, also has A116E GrlA mutation), SA-8325-4 (NCTC 8325 cured of prophages), SA-K2068 (SA-8325-4, non-NorA multidrug efflux pump overproducing mutation) were obtained from Glenn Kaatz (Kaatz et al., “Identification and characterization of a novel efflux-related multidrug resistance phenotype in Staphylococcus aureus”, J. Antimicrob. Chemother. 50:833-838 (2002); 1993; Kaatz et al., “Phenothiazines and thioxanthenes inhibit multidrug efflux pump activity in Staphylococcus aureus”, Antimicrob. Agents Chemother. 47:719-726, Kaatz et al., “Efflux-mediated fluoroquinolone resistance in Staphylococcus aureus. Antimicrob. Agents Chemother.”, 37:1086-1094, 1993)).
# as §1
# (§4) Recent more hydrophobic fluoroquinolones such as gatifloxacin and moxifloxacin are less well recognized by NorA; however, recently one other pump in S. aureus has been described which also recognizes hydrophobic fluoroquinolones (Kaatz et al. 2002, supra). To investigate the potential of A-106 and C-9 to block the efflux of several fluoroquinolones in cells with constituitively over-expressed efflux pumps, we used S. aureus strains SA-1199B and K2068 (Table 3). […] Kaatz et al., “Phenothiazines and thioxanthenes inhibit multidrug efflux pump activity in Staphylococcus aureus”, Antimicrob. Agents Chemother. 47:719-726 (2003).
# [3] = tested on: S. aureus SA-K2068 (non-NorA multidrug efflux pump overproducing); test: microbe, parasite or virus in culture; conditions: Staphylococcus aureus
# From the text: as §3, §1, §4
# [4] = tested on: S. aureus SA-1199 (clinical isolate, susceptible); test: MIC of fluoroquinolones with and without EPI; conditions: Staphylococcus aureus, read-out: MIC of antibacterial agent, EPI none
# From the text: as §3, §1
# S. aureus SA-8325-4 = test: MIC of fluoroquinolones with and without EPI; conditions: Staphylococcus aureus, SA83254, read-out: MIC of antibacterial agent, EPI none
# From the text: as §3, §1
# S. aureus ATCC 29213 [5] = test: Minimal effective concentration (MEC) of EPI for EtBr; conditions: S. aureus ATCC 29213; lowest amount of EPI which produces the maximum effect on the MIC of ethidium bromide
# Method: The MEC was determined as the minimal concentration of EPI that produced the maximal reduction in substrate MIC.
# The minimum effective concentration (MEC) for inhibition of EtBr efflux was determined in S. aureus, E. faecalis and S. pneumoniae for A-106 and C-9; reserpine was used as a comparator (Table 1).
# [6] = tested on: E. faecalis clinical isolates; test: MIC90 studies: fluoroquinolone susceptibility of clinical isolate panel with EPI; conditions: Enterococcus faecalis, read-out: MIC, No EPI
# Method: (§5) Susceptibility studies with large panels of resistant clinical isolates were performed at Focus Technologies, Herndon, Va. according to NCCLS protocols (National Committee for Clinical Laboratory Standards, supra).
# (§6) To be useful in combination therapy, an EPI needs to substantially reduce the MIC of an antibiotic to within the range of clinical susceptibility. Because many different resistance mechanisms are often present in clinical isolates, including the likelihood of multiple target-based mutations in addition to efflux mutations, the barrier to antibiotic efficacy is much greater. […] Oxacillin and vancomycin MICs were also determined to identify which isolates were methicillin-resistant (S. aureus) and vancomycin-resistant (E. faecalis).
# [7] = tested on: S. aureus clinical isolates; test: as above; conditions: Staphylococcus aureus
# Method: as §5, §6
# [8] = ATCC29213, read-out: MIC of antibacterial agent, EPI none, S. aureus ATCC 29213, no EPI
# [9] = ATCC29213, read-out: MIC, No EPI, antibacterial agent alone
# [10] = read-out: MIC of antibacterial agent, EPI none
# [11] = read-out: MIC of Gatifloxacin without EPI
structure (smiles),measurement,setting,value
"CC[n+]1c(-c2ccccc2)c2cc(N)ccc2c2ccc(N)cc21 [EtBr, Ethidium bromide]",MIC of EtBr without EPI,S. aureus ATCC 29213 [1]; S. aureus ATCC 29213,6.2 µg/mL
same,MIC,"S. aureus ATCC 29213 [1]; ATCC29213, read-out: MIC of EtBr without EPI, S. aureus ATCC 29213",6.3 µg/mL
same,MIC,S. aureus ATCC 29213 [1]; [8],6.2 µg/mL
same,MIC,S. aureus ATCC 29213 [1]; [9],6.2 µg/mL
same,"MIC in the presence of 4X MEC of EPI, VX-710",S. aureus ATCC 29213 [1],0.2 µg/mL
same,"MIC in the presence of 4X MEC of EPI, VX-853",S. aureus ATCC 29213 [1],1.6 µg/mL
same,"MIC in the presence of 4X MEC of EPI, reserpine",S. aureus ATCC 29213 [1],1.6 µg/mL
same,MIC,E. faecalis ATCC 29212,6.3 µg/mL
same,MIC,S. pneumoniae ATCC 10015,2 µg/mL
same,MIC,[2]; [10],25 µg/mL
same,MIC,[3]; [10],12.5 µg/mL
same,MIC,[4],6.2 µg/mL
same,MIC,S. aureus SA-8325-4,3.1 µg/mL
COc1cc(C(=O)C(=O)N2CCCCC2C(=O)OC(CCCc2ccccc2)CCCc2cccnc2)cc(OC)c1OC (stereo not shown) [VRT-010367],MIC of EPI,S. aureus ATCC 29213 [1]; S. aureus ATCC 29213,>50 µg/mL
same,Fold-reduction in EtBr MIC,S. aureus ATCC 29213 [1]; S. aureus ATCC 29213,2
same,MIC of EtBr with EPI,S. aureus ATCC 29213 [1]; S. aureus ATCC 29213,3.1 µg/mL
same,MEC of EPI,S. aureus ATCC 29213 [5],1.6 µg/mL
COc1cc(C(=O)C(=O)N(C)C(Cc2ccccc2)C(=O)N(Cc2ccccc2)C(CCc2ccncc2)CCc2ccncc2)cc(OC)c1OC (stereo not shown) [VRT-013661],MIC of EPI,S. aureus ATCC 29213 [1]; S. aureus ATCC 29213,>100 µg/mL
same,Fold-reduction in EtBr MIC,S. aureus ATCC 29213 [1]; S. aureus ATCC 29213,4
same,MIC of EtBr with EPI,S. aureus ATCC 29213 [1]; S. aureus ATCC 29213,1.6 µg/mL
same,MEC of EPI,S. aureus ATCC 29213 [5],3.1 µg/mL
"COc1c(N2CCNC(C)C2)c(F)cc2c(=O)c(C(=O)O)cn(C3CC3)c12 (stereo not shown) [gatifloxacin, reference compound]",MIC,"S. aureus ATCC 29213 [1]; ATCC29213, read-out: MIC of Gatifloxacin without EPI, S. aureus ATCC 29213 (Table 4)",0.125 µg/mL
same,MIC,S. aureus ATCC 29213 [1]; [8],0.063 µg/mL
same,MIC,S. aureus ATCC 29213 [1]; [9],0.125 µg/mL
same,"MIC in the presence of 4X MEC of EPI, VX-710",S. aureus ATCC 29213 [1],0.125 µg/mL
same,"MIC in the presence of 4X MEC of EPI, VX-853",S. aureus ATCC 29213 [1],0.125 µg/mL
same,"MIC in the presence of 4X MEC of EPI, reserpine",S. aureus ATCC 29213 [1],0.125 µg/mL
same,MIC,[2]; [11],0.5 µg/mL
same,MIC,[2]; [10],0.5 µg/mL
same,MIC,[3]; [11],1 µg/mL
same,MIC,[3]; [10],1 µg/mL
same,MIC,[4],0.063 µg/mL
same,MIC,S. aureus SA-8325-4,0.125 µg/mL
"CCn1cc(C(=O)O)c(=O)c2cc(F)c(N3CCNCC3)cc21 [norfloxacin, reference compound]",MIC,"S. aureus ATCC 29213 [1]; ATCC29213, antibacterial agent alone, read-out: MIC, No EPI",1 µg/mL
same,MIC,S. aureus ATCC 29213 [1]; [8],0.5 µg/mL
same,"MIC in the presence of 4X MEC of EPI, VX-710",S. aureus ATCC 29213 [1],0.25 µg/mL
same,"MIC in the presence of 4X MEC of EPI, VX-853",S. aureus ATCC 29213 [1],0.5 µg/mL
same,"MIC in the presence of 4X MEC of EPI, reserpine",S. aureus ATCC 29213 [1],0.5 µg/mL
same,MIC,[3]; [10],8 µg/mL
same,MIC,[4],0.5 µg/mL
same,MIC,S. aureus SA-8325-4,1 µg/mL
same,MIC,[6]; E. faecalis clinical isolate 1,4 µg/mL
same,MIC,[6]; E. faecalis clinical isolate 2,4 µg/mL
same,MIC,[6]; E. faecalis clinical isolate 3,128 µg/mL
same,MIC,[6]; E. faecalis clinical isolate 4,128 µg/mL
same,MIC,[6]; E. faecalis clinical isolate 5,64 µg/mL
same,MIC,[6]; E. faecalis clinical isolate 6,2 µg/mL
same,MIC,[6]; E. faecalis clinical isolate 7,2 µg/mL
same,MIC,[6]; E. faecalis clinical isolate 8,128 µg/mL
same,MIC,[6]; E. faecalis clinical isolate 9,4 µg/mL
same,MIC,[6]; E. faecalis clinical isolate 10,64 µg/mL
same,MIC,[6]; E. faecalis clinical isolate 11,128 µg/mL
same,MIC,[6]; E. faecalis clinical isolate 12,2 µg/mL
same,MIC,[6]; E. faecalis clinical isolate 13,2 µg/mL
same,MIC,[6]; E. faecalis clinical isolate 14,4 µg/mL
same,MIC,[6]; E. faecalis clinical isolate 15,4 µg/mL
same,MIC,[6]; E. faecalis clinical isolate 16,4 µg/mL
same,MIC,[6]; E. faecalis clinical isolate 17,4 µg/mL
same,MIC,[6]; E. faecalis clinical isolate 18,128 µg/mL
same,MIC,[6]; E. faecalis clinical isolate 19,4 µg/mL
same,MIC,[6]; E. faecalis clinical isolate 20,4 µg/mL
same,MIC,[6]; E. faecalis clinical isolate 21,2 µg/mL
same,MIC,[6]; E. faecalis clinical isolate 22,128 µg/mL
same,MIC,[6]; E. faecalis clinical isolate 23,64 µg/mL
same,MIC,[6]; E. faecalis clinical isolate 24,> 256 µg/mL
same,MIC,[6]; E. faecalis clinical isolate 25,128 µg/mL
same,MIC,[6]; E. faecalis clinical isolate 26,> 256 µg/mL
same,MIC,[7]; S. aureus clinical isolate 1,16 µg/mL
same,MIC,[7]; S. aureus clinical isolate 2,1 µg/mL
same,MIC,[7]; S. aureus clinical isolate 3,1 µg/mL
same,MIC,[7]; S. aureus clinical isolate 4,256 µg/mL
same,MIC,[7]; S. aureus clinical isolate 5,1 µg/mL
same,MIC,[7]; S. aureus clinical isolate 6,32 µg/mL
same,MIC,[7]; S. aureus clinical isolate 7,2 µg/mL
same,MIC,[7]; S. aureus clinical isolate 8,4 µg/mL
same,MIC,[7]; S. aureus clinical isolate 9,1 µg/mL
same,MIC,[7]; S. aureus clinical isolate 10,64 µg/mL
same,MIC,[7]; S. aureus clinical isolate 11,64 µg/mL
same,MIC,[7]; S. aureus clinical isolate 12,1 µg/mL
same,MIC,[7]; S. aureus clinical isolate 13,256 µg/mL
same,MIC,[7]; S. aureus clinical isolate 14,256 µg/mL
same,MIC,[7]; S. aureus clinical isolate 15,256 µg/mL
